This series relates to cotton melon aphid (Aphis gossypii (Glover)). Briefly: Test C: control of cotton melon aphid on sprayed okra plant. It is filed as in vivo. Conditions: sprayed at 250 ppm; assessed after 6 days. Here is the method: Test compounds were formulated using a solution containing 10% acetone, 90% water and 300 ppm Activator 90@non-ionic surfactant (Loveland Products, Loveland, Colorado, USA). The formulated compounds were applied in 1 mL of liquid through an atomized nozzle positioned 1.27 cm (0.5 inches) above the top of each test unit. Test compounds were sprayed at the rates indicated, and each test was replicated three times.
For evaluating control of cotton melon aphid (Aphis gossypii (Glover)) through contact and/or systemic means, the test unit consisted of a small open container with a 5-day-old okra plant inside. This was pre-infested with 30-40 insects on a piece of leaf according to the cut-leaf method, and the soil of the test unit was covered with a layer of sand.
Test compounds were formulated and sprayed at 250, 50, 10, and 2 ppm with three replications as described above. After spraying, the test units were maintained in a growth chamber for 6 days at 19° C. and 70% relative humidity. Each test unit was then visually assessed for insect mortality.

The source of these data is patent US20260083129A1, “PYRAZOLE AMIDE INSECTICIDES” (FMC CORPORATION, priority 2022, published 2026).

The structures appear in SMILES notation.

For the compound `CC(c1c([N+](=O)[O-])cnn1-c1ncccn1)N(C)C(=O)c1cc(C(F)(F)F)cc(C(F)(F)F)c1` (stereo not shown) [Compound 96], the mortality entry is given as “at least 80%”.
